# According to ChEMBL document CHEMBL5550205, “Discovery of a NCOA4 Degrader for Labile Iron-Dependent Ferroptosis Inhibition” (J Med Chem, 2024):
# The source made the active and inactive calls. The rule behind the calls is not given here.
# Experiments:
# [1] = target: T1, von Hippel-Lindau disease tumor suppressor/Nuclear receptor coactivator 4 (Homo sapiens, UniProt P40337+Q13772); assay: PROTAC activity at NCOA4/VHL in human HeLa cells assessed as induction of NCOA4 degradation measured for 24 hrs by Western blot analysis; type: cell-based
# Target sequence in this assay (P40337 whole entry): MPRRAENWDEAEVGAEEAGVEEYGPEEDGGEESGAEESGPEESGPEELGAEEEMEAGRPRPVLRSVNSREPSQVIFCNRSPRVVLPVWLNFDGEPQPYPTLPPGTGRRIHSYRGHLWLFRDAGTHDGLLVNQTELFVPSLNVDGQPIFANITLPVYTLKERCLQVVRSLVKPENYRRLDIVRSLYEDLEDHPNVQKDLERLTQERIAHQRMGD
# Target sequence in this assay (Q13772 whole entry): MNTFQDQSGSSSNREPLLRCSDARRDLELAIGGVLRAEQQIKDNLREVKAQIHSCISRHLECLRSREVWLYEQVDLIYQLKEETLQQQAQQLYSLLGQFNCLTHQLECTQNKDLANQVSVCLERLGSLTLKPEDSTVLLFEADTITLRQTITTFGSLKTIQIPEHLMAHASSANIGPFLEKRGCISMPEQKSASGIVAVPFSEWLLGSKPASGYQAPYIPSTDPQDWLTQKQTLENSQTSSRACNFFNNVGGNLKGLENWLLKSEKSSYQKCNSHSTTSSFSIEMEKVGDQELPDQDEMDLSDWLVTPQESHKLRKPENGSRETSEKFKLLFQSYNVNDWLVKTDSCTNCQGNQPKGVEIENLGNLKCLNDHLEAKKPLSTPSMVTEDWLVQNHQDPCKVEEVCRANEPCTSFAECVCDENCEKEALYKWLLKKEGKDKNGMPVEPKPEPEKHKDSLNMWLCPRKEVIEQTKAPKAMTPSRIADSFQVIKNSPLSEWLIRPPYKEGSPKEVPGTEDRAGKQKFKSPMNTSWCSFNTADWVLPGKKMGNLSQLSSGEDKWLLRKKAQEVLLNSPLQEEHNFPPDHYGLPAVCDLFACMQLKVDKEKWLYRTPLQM
# [2] = target: T1, von Hippel-Lindau disease tumor suppressor/Nuclear receptor coactivator 4; assay: PROTAC activity at NCOA4/VHL in human HeLa cells assessed as downregulation of NCOA4 level measured after 3 hrs by Western blot analysis; type: cell-based
# Target sequence in this assay (P40337 whole entry, looked up): as the sequence (P40337 whole entry) above
# Target sequence in this assay (Q13772 whole entry, looked up): as the sequence (Q13772 whole entry) above
# [3] = target: T1, von Hippel-Lindau disease tumor suppressor/Nuclear receptor coactivator 4; assay: PROTAC activity at NCOA4/VHL in human HeLa cells assessed as induction of NCOA4 degradation at 50 nM measured 36 to 48 hrs by Western blot analysis; type: cell-based; conditions: time 36-48 hrs
# Target sequence in this assay (P40337 whole entry, looked up): as the sequence (P40337 whole entry) above
# Target sequence in this assay (Q13772 whole entry, looked up): as the sequence (Q13772 whole entry) above
# [4] = target: von Hippel-Lindau disease tumor suppressor/Nuclear receptor coactivator 4 (Mus musculus, UniProt P40338+Q5U4H9); assay: PROTAC activity at NCOA4/VHL in mouse AML12 cells assessed as reduction in intracellular NCOA4 level incubated for 24 hrs by Western blot analysis; type: cell-based
# Chain of von Hippel-Lindau disease tumor suppressor/Nuclear receptor coactivator 4 (Mus musculus, UniProt P40338+Q5U4H9) (P40338 whole entry): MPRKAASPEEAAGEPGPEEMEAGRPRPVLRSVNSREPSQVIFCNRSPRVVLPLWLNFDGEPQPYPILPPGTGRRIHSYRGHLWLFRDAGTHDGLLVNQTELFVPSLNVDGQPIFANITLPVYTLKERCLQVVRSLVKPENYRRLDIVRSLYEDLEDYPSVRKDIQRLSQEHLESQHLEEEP
# Chain of von Hippel-Lindau disease tumor suppressor/Nuclear receptor coactivator 4 (Mus musculus, UniProt P40338+Q5U4H9) (Q5U4H9 whole entry): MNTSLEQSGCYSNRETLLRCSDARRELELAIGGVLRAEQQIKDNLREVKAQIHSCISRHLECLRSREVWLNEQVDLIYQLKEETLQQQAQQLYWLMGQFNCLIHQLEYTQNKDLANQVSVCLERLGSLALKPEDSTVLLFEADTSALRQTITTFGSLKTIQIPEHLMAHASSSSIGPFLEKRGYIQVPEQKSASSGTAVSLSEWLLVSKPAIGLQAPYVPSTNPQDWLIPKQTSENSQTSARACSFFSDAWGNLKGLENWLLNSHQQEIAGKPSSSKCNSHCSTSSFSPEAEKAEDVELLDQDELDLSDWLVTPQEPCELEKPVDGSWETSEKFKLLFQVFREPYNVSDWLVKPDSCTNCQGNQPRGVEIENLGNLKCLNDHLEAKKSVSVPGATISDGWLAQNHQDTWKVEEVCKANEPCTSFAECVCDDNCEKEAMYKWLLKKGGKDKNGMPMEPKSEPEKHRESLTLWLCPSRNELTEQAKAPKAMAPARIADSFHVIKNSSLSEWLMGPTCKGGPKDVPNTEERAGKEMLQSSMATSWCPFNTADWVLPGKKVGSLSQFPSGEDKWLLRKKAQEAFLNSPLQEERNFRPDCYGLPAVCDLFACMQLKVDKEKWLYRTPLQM
# [5] = target: von Hippel-Lindau disease tumor suppressor/Nuclear receptor coactivator 4 (Mus musculus) (UniProt P40338+Q5U4H9); assay: PROTAC activity at NCOA4/VHL in mouse AML12 cells assessed as effect on NCOA4 mRNA level at 0.12 to 10 uM incubated for 24 hrs by qRT-PCR analysis; type: cell-based; conditions: dose 0.12-10 µM
# Chain of von Hippel-Lindau disease tumor suppressor/Nuclear receptor coactivator 4 (Mus musculus) (P40338 whole entry, looked up): as the sequence (P40338 whole entry) above
# Chain of von Hippel-Lindau disease tumor suppressor/Nuclear receptor coactivator 4 (Mus musculus) (Q5U4H9 whole entry, looked up): as the sequence (Q5U4H9 whole entry) above
# AML12 [6] = assay: Upregulation of FTH1 level in mouse AML12 cells incubated for 24 hrs by Western blot analysis; type: functional, cell-based; conditions: dose <= 10.0 µM
# AML12 [7] = assay: Upregulation of FTL level in mouse AML12 cells incubated for 24 hrs by Western blot analysis; type: functional, cell-based; conditions: dose <= 10.0 µM
# AML12 [8] = assay: Effect on FTH1 mRNA expression in mouse AML12 cells at 0.12 to 10 uM measured for 36 hrs by RT-qPCR analysis; type: functional, cell-based; conditions: dose 0.12-10 µM
# AML12 [9] = assay: Effect on FTL mRNA expression in mouse AML12 cells at 0.12 to 10 uM measured for 36 hrs by RT-qPCR analysis; type: functional, cell-based; conditions: dose 0.12-10 µM
# AML12 [10] = assay: Downregulation of Free Fe2+ level in mouse AML12 cells by FerroOrange dye based laser scanning confocal microscopic analysis; type: functional, cell-based
# AML12 [11] = assay: Downregulation of MDA level in mouse AML12 cells measured for 36 hrs; type: functional, cell-based; conditions: dose <= 10.0 µM
# AML12 [12] = assay: Inhibition of Ptgs2 mRNA expression in mouse AML12 cells measured for 36 hrs by qRT-PCR analysis; type: functional, cell-based; conditions: dose <= 10.0 µM
# AML12 [13] = assay: Downregulation of lipid hydroperoxide level in mouse AML12 cells at 200 nM measured for 36 hrs; type: functional, cell-based
# AML12 [14] = assay: Protection against Erastin-induced ferroptosis in mouse AML12 cells assessed as increase in cell viability at 200 nM measured for 48 hrs by cell counting-lite 2.0 analysis; type: functional, cell-based
# AML12 [15] = assay: Protection against RSL3-induced ferroptosis in mouse AML12 cells assessed as increase in cell viability at 200 nM measured for 48 hrs by cell counting-lite 2.0 analysis; type: functional, cell-based
# AML12 [16] = assay: Protection against Brequinal-induced ferroptosis in mouse AML12 cells assessed as increase in cell viability at 200 nM measured for 48 hrs by cell counting-lite 2.0 analysis; type: functional, cell-based
# AML12 [17] = assay: Protection against iFSP-induced ferroptosis in mouse AML12 cells assessed as increase in cell viability at 200 nM measured for 48 hrs by cell counting-lite 2.0 analysis; type: functional, cell-based
# AML12 [18] = assay: Protection against FINO2-induced ferroptosis in mouse AML12 cells assessed as increase in cell viability at 200 nM measured for 48 hrs by cell counting-lite 2.0 analysis; type: functional, cell-based
# AML12 [19] = assay: Protection against Erastin-induced ferroptosis in mouse AML12 cells assessed as attenuation of Fe2+ level by fluorescence imaging analysis; type: functional, cell-based
# AML12 [20] = assay: Protection against RSL3-induced ferroptosis in mouse AML12 cells assessed as attenuation of Fe2+ level by fluorescence imaging analysis; type: functional, cell-based
# AML12 [21] = assay: Protection against Brequinal-induced ferroptosis in mouse AML12 cells assessed as attenuation of Fe2+ level by fluorescence imaging analysis; type: functional, cell-based
# AML12 [22] = assay: Protection against iFSP1-induced ferroptosis in mouse AML12 cells assessed as attenuation of Fe2+ level by fluorescence imaging analysis; type: functional, cell-based
# AML12 [23] = assay: Protection against FINO2-induced ferroptosis in mouse AML12 cells assessed as attenuation of Fe2+ level by fluorescence imaging analysis; type: functional, cell-based
# AML12 [24] = assay: Protection against Erastin-induced ferroptosis in mouse AML12 cells assessed as reduction in lipid peroxidation level at 200 nM measured for 48 hrs; type: functional, cell-based
# AML12 [25] = assay: Protection against RSL3-induced ferroptosis in mouse AML12 cells assessed as reduction in lipid peroxidation level at 200 nM measured for 48 hrs; type: functional, cell-based
# AML12 [26] = assay: Protection against Brequinal-induced ferroptosis in mouse AML12 cells assessed as reduction in lipid peroxidation level at 200 nM measured for 48 hrs; type: functional, cell-based
# AML12 [27] = assay: Protection against iFSP1-induced ferroptosis in mouse AML12 cells assessed as reduction in lipid peroxidation level at 200 nM measured for 48 hrs; type: functional, cell-based
smiles,measurement,setting,value
Cc1ncsc1-c1ccc(CNC(=O)[C@@H]2C[C@@H](O)CN2C(=O)[C@H](NC(=O)CCCC(=O)NCCOCCOCCOCCOc2ccc3c(c2)CCN(c2cccc(-c4nc5ccc(N6CCN(C)CC6)cc5[nH]4)c2)C3)C(C)(C)C)cc1,DC50,[1],3 nM
same,Activity,[2],Active
same,Activity,[3],Active
same,DC50,[4],202 nM
same,Activity,[5],Active
same,Activity,AML12 [6],Dose-Dependent Effect
same,Activity,AML12 [7],Dose-Dependent Effect
same,Activity,AML12 [8],inactive
same,Activity,AML12 [9],inactive
same,Activity,AML12 [10],Active
same,Activity,AML12 [11],Dose-Dependent Effect
same,inhibition,AML12 [12],Dose-Dependent Effect
same,Activity,AML12 [13],Active
same,Activity,AML12 [14],Active
same,Activity,AML12 [15],Active
same,Activity,AML12 [16],Active
same,Activity,AML12 [17],Active
same,Activity,AML12 [18],Active
same,Activity,AML12 [19],Active
same,Activity,AML12 [20],Active
same,Activity,AML12 [21],Active
same,Activity,AML12 [22],Active
same,Activity,AML12 [23],Active
same,Activity,AML12 [24],Active
same,Activity,AML12 [25],Active
same,Activity,AML12 [26],Active
same,Activity,AML12 [27],Active
